Series [1] has as its system Bacillus spizizenii. In words: Antibacterial activity against Bacillus subtilis ATCC 6633 assessed as bacterial growth inhibition measured after 48 hrs by resazurin assay. The conditions noted are these: ATCC 6633, 48 h. Type of series: functional.
Series [2] has as its system Escherichia coli. Put plainly: Antibacterial activity against Escherichia coli ATCC 25922 assessed as bacterial growth inhibition measured after 48 hrs by resazurin assay. As to conditions: ATCC 25922, 48 h. Type of series: functional. On the technique in general: Alamar Blue is a resazurin reagent that responds to reducing activity.
The nature of series [3]: Cytotoxicity against human NFF cells assessed as cell growth inhibition measured after 96 hrs by resazurin assay. The conditions noted are these: read-out: MIC. The series is classed as cell-based.
The nature of series [4]: Cytotoxicity against mouse NS1 cells assessed as cell growth inhibition measured after 96 hrs by resazurin assay. Type of series: cell-based. As to conditions: read-out: MIC.
Series [5] deals with Tritrichomonas foetus. Put plainly: Antiprotozoal activity against Tritrichomonas foetus KV1 assessed as protozoal growth inhibition measured after 72 hrs under anaerobic conditions. The conditions noted are these: KV1, 72 h. The series is classed as functional.
Series [6] deals with Candida albicans. In words: Antifungal activity against Candida albicans ATCC 10231 assessed as fungal growth inhibition measured after 48 hrs by bromocresol green dye based assay. Type of series: functional.
Series [7] has as its system Giardia intestinalis. In words: Antiprotozoal activity against Giardia duodenalis 713 assessed as protozoal growth inhibition measured after 96 hrs under anaerobic conditions. Type of series: functional. The conditions noted are these: Giardia duodenalis, 713, 96 h.

Converted amounts (≈) assume the structure as drawn.

As for `CN(C)[C@@H]1C(O)=C(C(N)=O)C(=O)[C@@]2(O)C(O)=C3C(=O)c4c(O)cccc4[C@@](C)(O)[C@H]3C[C@@H]12` [TETRACYCLINE], the MIC in series [1] turned out to be 0.9 µM (≈ 0.4 µg/mL); in series [2], 14 µM (≈ 6.22 µg/mL).
`CSC[S@+]([O-])C[C@H](CO)NC(=O)/C=C/c1c(C)[nH]c(=O)[nH]c1=O`: the MCC at 96 h in series [3] was 1.7 µM; in series [4], 0.55 µM.
Turning to `N#CCCCCC#CC#CC#CCCCCCCC#N`, the MIC in series [1] is 400 µM (≈ 106 µg/mL); in series [2], greater than 400 µM; in series [5], 190 µM (≈ 50.2 µg/mL); in series [6] (ATCC 10231, 48 h) it was greater than 400 µM; in series [7], 12 µM (≈ 3.17 µg/mL). For the same compound, the results for the MCC at 96 h in series [3] and in series [4] were 100 µM and 50 µM, respectively.
Regarding NYSTATIN, the MIC in series [6] came out at 1.7 µM.
Regarding `Cc1ncc([N+](=O)[O-])n1CCO` [METRONIDAZOLE], the MIC in series [5] came out at 1.2 µM (≈ 0.205 µg/mL); in series [7], 2.9 µM (≈ 0.496 µg/mL).
As to `N#CCCCCC#CC#CC#CCCCCCC(O)C#N` (stereo not given), the MIC was 90 µM (≈ 25.2 µg/mL) in series [1]; greater than 360 µM in series [2]; greater than 360 µM in series [5]; greater than 360 µM in series [6] (ATCC 10231, 48 h); 90 µM (≈ 25.2 µg/mL) in series [7]. Besides, the MCC at 96 h in series [3] worked out at 90 µM; in series [4] it was 180 µM.
In the case of `N#CCCCCC#CC#CC#CCCCCCC=O`, the MIC in series [1] is 400 µM (≈ 101 µg/mL); in series [2] it was greater than 400 µM; in series [5] it was 200 µM (≈ 50.7 µg/mL); in series [6] (ATCC 10231, 48 h), greater than 400 µM; in series [7], 400 µM (≈ 101 µg/mL). Moreover, the MCC at 96 h in series [3] is 50 µM; in series [4], 100 µM.
`N#CCCCCC#CC#CC#CCCCCCC#N`: the MIC is greater than 400 µM in series [1]; greater than 400 µM in series [2]; 200 µM (≈ 50.1 µg/mL) in series [5]; greater than 400 µM in series [6] (ATCC 10231, 48 h); 25 µM (≈ 6.26 µg/mL) in series [7]. For the same compound, the MCC at 96 h in series [3] came out at 100 µM; in series [4], 50 µM.

What is called MIC is the smallest concentration in the dilution series that meets the test's criterion for growth inhibition.

The values above are taken from ChEMBL document CHEMBL4414677, “Albanitriles A-G: Antiprotozoal Polyacetylene Nitriles from a Mycale Marine Sponge” (J Nat Prod, 2019).
